1 molecule from publication PMC2678901 (Drug metabolism and disposition: the biological fate of …, 2008) can be followed below.

SMILES strings stand for the structures.

This data set deals with CYP3A. To be noted: 5 μM inhibitor; liver microsomes of RIF-pretreated TgCYP3A4/hPXR mice; 50 μM MDZ. (In general: Liver microsomes are vesicles of endoplasmic reticulum, rich in cytochrome P450 enzymes.)

As for `CC(=O)N1CCN(c2ccc(OCC3COC(Cn4ccnc4)(c4ccc(Cl)cc4Cl)O3)cc2)CC1` (stereo not shown) [ketoconazole], the “Inhibition of CYP3A activity” value is “markedly inhibited”.
